Test results taken from patent US20100137266A1, “TREATMENT OF INSULIN RESISTANCE AND DISORDERS ASSOCIATED THEREWITH” (UNIVERSITETET I OSLO, priority 2006, published 2010).

How the values were obtained:
LXRα = target: T1, LXRα (Homo sapiens, UniProt Q13133); details: Forman et al.; cited from earlier work
T1 construct: host or cells: CV-1 cells (fibroblasts)
T1 sequence (Q13133 1-447): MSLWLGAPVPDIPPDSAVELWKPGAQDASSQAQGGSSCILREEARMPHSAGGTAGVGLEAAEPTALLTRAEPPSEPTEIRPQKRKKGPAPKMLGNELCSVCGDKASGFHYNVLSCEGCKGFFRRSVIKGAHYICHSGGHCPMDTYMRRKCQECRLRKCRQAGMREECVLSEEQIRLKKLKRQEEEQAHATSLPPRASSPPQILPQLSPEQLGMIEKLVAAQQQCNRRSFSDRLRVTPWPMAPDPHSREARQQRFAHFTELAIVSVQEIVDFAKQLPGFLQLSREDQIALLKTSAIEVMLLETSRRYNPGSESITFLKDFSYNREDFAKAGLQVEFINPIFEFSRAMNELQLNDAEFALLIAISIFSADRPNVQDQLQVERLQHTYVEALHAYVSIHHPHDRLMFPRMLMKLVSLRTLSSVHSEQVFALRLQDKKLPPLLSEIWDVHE

human myotubes = test: Glucose uptake (2-deoxy-D-glucose) in myotubes; type: cell-based; details: for basal glucose uptake, increase: myotubes from young, healthy subjects, exposure for 4 days, 1 μmol/l T0901317 or 10 μmol/l 22-HC
Source text: FIG. 7. Glucose transport is increased in human myotubes after chronic 22-S-HC treatment. Human myoblasts were allowed to differentiate for 2 days, and then exposed to 1 μmol/1 T0901317, 10 μmol/[…]) or 1, 2, 5 and 10 μmol/1 22-S-HC(S-HC) for 4 days. […] (A) Present means for glucose uptake±SEM (n=4). Basal level for control are 1.20±0.24 nmol/mg cell protein. (B) A representative dose-response curve for glucose uptake after 1, 2, 5 and 10 μmol/l 22-S-HC treatment (n=3). (C) Total RNA were reversely transcribed and analyzed by Real-Time RT-PCR. Results are normalized to levels of 36B4 and present means±SEM (n=4-6). Relative expressions of GLUT1, GLUT3, GLUT4, and hexokinase (HK)II, ^ap<0.05 vs control, ^dp<0.05 vs T0901317. Glucose Uptake. Skeletal biopsies were taken from M.vastus lateralis of healthy human donors and human myoblasts were allowed to differentiate for 4 days. On day 4, myotubes were exposed to T0901317 or 22-R-HC or 22-S-HC for another 4 days. […] Cells were solubilized by addition of 500 μl 0.1 mol/l NaOH. An aliquot (50 μl) was removed for protein determination (Bradford 1976) 300 μl was counted by liquid scintillation ([…] and Beck-Nielsen 2004).

[1] = system: rat FAS luciferase reporter; test: Transfection and luciferase assay with rat FAS promoter reporter in COS-1 cells co-transfected with RXRα and LXRα; type: cell-based; details: COS-1 cells with RXRα and LXRα expression vectors; 1 μM T0901317 or 10 μM 22-HC for 48 h; vs unstimulated control cells
Description: FIG. 6. […] COS-1 cells were transient transfected with rat FAS luciferase reporter and co-transfected with β-galactosidase (internal control), RXRα and LXRα expression vectors. Medium was supplied with vehicle (0.1% DMSO), 1 μM T0901317, 10 μM 22-R-hydroxycholesterol (22-R-HC) or 10 μM 22-S— hydroxycholesterol (22-S-HC) for 48 h. The results represent one of two experiments performed with triplicate cell culture dishes and are presented as means±SD.
Transfection and Luciferase Assay. Monkey kidney COS-1 cells (ATCC no. CRL 1650) were grown in DMEM supplemented with 10% FBS. For reporter gene assays, COS-1 cells were transiently transfected with luciferase reporter containing sequences from −1594 to +67 bp of the rat FAS promoter (5 μg), with a known LXR responsive element (LXRE) located at −669 to −655 (kindly provided by Peter Tontonoz, Howard Hughes Medical Institute, California, USA) and co-transfected with pCMX-RXRα, pCMX-LXRα, (1 μg each), and pSV-β-galactosidase (3 μg) expression vectors with calcium phosphate precipitation. Total DNA concentration was adjusted to 12 μg with corresponding empty expression vectors and pGL3-basic vector. After 3 h of transfection, medium containing appropriate reagents was added for 48 h. Cells were harvested in 100 μl lysis buffer, and luciferase activities were measured in a TD-20/20 Luminometer (Turner Designs, Sunnyvale, Calif.) using the dual luciferase assay kit (Promega). Relative luciferase activity was normalized against β-galactosidase activity.

For CC(C)CC[C@@H](O)[C@@H](C)[C@H]1CC[C@H]2[C@@H]3CC=C4C[C@@H](O)CC[C@]4(C)[C@H]3CC[C@]12C [Example 22-R-HC, 22-R-hydroxycholesterol], the “regulation of LXRα in fibroblasts (CV-1 cells)” value (LXRα) is listed as “positively regulates”, the “basal glucose uptake, increase” value (human myotubes) is listed as “tended to increase” and the “glucose uptake after pre-treatment of myotubes (summary statement)” value (shortened to “glucose uptake after pre-treatment”) (human myotubes) is listed as “only a slight or no significant effect”. For the same molecule, the “rat FAS promoter luciferase reporter activity” value [1] was “unable to regulate the FAS gene promoter”.
For CC(C)CC[C@H](O)[C@@H](C)[C@H]1CC[C@H]2[C@@H]3CC=C4C[C@@H](O)CC[C@]4(C)[C@H]3CC[C@]12C [Example 22-S-HC, 22-S-hydroxycholesterol], the “regulation of LXRα in fibroblasts (CV-1 cells)” value (LXRα) is listed as “inactive”, the “basal glucose uptake, dose response” value (human myotubes; 0, 1.0, 2.0, 5.0 and 10 μmol/l for 4 days) is listed as “increased in a dose—dependent manner” and the “basal glucose uptake, increase” value (human myotubes) is listed as 2 fold. For the same molecule, the “glucose uptake after pre-treatment” value (human myotubes) was “marked stimulation” and the “rat FAS promoter luciferase reporter activity” value [1] was “seemed to reduce reporter activity”.
For O=S(=O)(c1ccccc1)N(CC(F)(F)F)c1ccc(C(O)(C(F)(F)F)C(F)(F)F)cc1 [Example T0901317], the “basal glucose uptake, increase” value (human myotubes) was “no effect”, the “glucose uptake after pre-treatment” value (human myotubes) was “only a slight or no significant effect” and the “rat FAS promoter luciferase reporter activity” value [1] was 6.5 fold.
